Read-outs that look alike come from different tables or passages of the source.
What was measured:
HEK293 cells = details: cited from earlier work
[1] = cited from earlier work
GLUT4 mRNA = GLUT4 mRNA induction in differentiated human adipocytes (Taqman RT-PCR); assay type: cell-based; details: human subcutaneous adipocyte cultures
Experimental: (§1) Gene expression was analyzed using Taqman RT-PCR and values are expressed as fold increase over untreated controls (n=5).
Gene expression was analyzed using Taqman RT-PCR and values are expressed as fold increase over untreated controls. Naringenin and Menthol v. Control: p=0.008, Naringenin and Menthol v. Naringenin: p=0.01. Naringenin and Menthol v. Menthol: p<0.001, Naringenin v. Control: p>0.05, Menthol v. Control: p>0.05.
(§2) UCP1 mRNA levels increased 4-8 fold in human subcutaneous adipocytes treated from 4-7 days with Naringenin at a concentration of 10 μM, the Cmax detected in human plasma after intake of citrus beverages (FIG. 1) (Kanaze, F. I., et al., Eur J Clin Nutr, 2007 61(4):472-7).

Pgc-1α = Pgc-1α expression in human subcutaneous adipocytes; assay type: cell-based; details: Naringenin 10 μM
Experimental: as §1, §2

[2] = cited from earlier work; remark: listed apart in the source
UCP1 mRNA = UCP1 mRNA induction in differentiated human adipocytes (Taqman RT-PCR); assay type: cell-based; details: for UCP1 expression in comparison with flavonoid alone: flavonoid 5 μM combined with 20 μM menthol, 7 day treatment
Experimental: as §1
Gene expression was analyzed using Taqman RT-PCR and values are expressed as fold increase over untreated controls.
To determine the lowest concentrations with efficacy to induce UCP1 mRNA in human adipocytes over a 7 day time period, cells were treated with multiple concentrations of menthol combined with naringenin at 5 μM (FIG. 6).

[3] = test system: carnitine palmitoyltransferase 1 (CPT-1); assay: CPT-1 induction in human subcutaneous adipocyte cultures; assay type: cell-based
Experimental: as §1, §2

TRPM8 receptor = TRPM8 receptor expression in human adipocytes; assay type: cell-based; details: 10 μM Naringenin alone
TRPM8 = TRPM8 (Homo sapiens, UniProt Q7Z2W7); details: cited from earlier work
Ucp1 expression [4] = details: brown adipocytes from mice; cited from earlier work
UCP1 expression [5] = details: cited from earlier work

Chain of TRPM8 (Q7Z2W7 whole entry, species assumed): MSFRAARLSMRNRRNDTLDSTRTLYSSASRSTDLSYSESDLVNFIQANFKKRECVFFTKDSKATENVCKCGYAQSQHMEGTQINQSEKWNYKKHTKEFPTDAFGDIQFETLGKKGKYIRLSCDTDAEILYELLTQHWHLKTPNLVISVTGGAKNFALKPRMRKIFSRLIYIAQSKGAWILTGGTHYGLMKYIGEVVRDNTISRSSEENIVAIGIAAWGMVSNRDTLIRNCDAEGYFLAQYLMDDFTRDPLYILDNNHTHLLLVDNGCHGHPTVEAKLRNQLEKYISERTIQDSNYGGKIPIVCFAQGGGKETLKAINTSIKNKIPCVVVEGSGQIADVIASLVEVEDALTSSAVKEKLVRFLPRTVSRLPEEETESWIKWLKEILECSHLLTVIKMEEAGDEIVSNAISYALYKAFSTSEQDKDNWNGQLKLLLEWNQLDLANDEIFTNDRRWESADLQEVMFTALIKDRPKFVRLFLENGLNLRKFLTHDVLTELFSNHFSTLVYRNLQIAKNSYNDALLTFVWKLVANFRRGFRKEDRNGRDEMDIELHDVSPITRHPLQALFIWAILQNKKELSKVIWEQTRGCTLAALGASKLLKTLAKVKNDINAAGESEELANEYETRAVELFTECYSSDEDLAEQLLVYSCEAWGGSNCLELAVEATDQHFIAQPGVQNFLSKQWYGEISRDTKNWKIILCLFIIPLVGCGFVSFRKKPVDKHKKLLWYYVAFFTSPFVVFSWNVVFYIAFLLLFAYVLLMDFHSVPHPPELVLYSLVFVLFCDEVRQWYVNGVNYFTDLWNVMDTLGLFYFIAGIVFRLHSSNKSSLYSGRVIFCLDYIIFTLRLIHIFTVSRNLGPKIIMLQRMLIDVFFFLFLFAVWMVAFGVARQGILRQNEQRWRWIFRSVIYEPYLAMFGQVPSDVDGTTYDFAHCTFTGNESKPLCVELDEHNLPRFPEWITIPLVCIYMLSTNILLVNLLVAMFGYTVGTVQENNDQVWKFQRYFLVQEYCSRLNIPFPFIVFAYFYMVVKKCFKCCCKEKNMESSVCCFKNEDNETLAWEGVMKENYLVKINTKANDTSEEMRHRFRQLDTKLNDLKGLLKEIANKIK

For `O=C1C[C@@H](c2ccc(O)cc2)Oc2cc(O)cc(O)c21` (stereo in doubt) [Naringenin, 2,3-dihydro-5,7-dihydroxy-2-(4-hydroxyphenyl)-4H-1-benzopyran-4-one], the “toxicity to cells (maximum concentration)” value (HEK293 cells) is given as 12.5 µM, the Cmax ([1]; human plasma/serum after intake of citrus beverages, read-out: Cmax) is given as 10 µM and the “induction of brown adipocyte marker GLUT4” value (GLUT4 mRNA) is given as “significantly induces”. For the same compound, the “increase in transcriptional activator Pgc-1α” value (Pgc-1α) was “No increases were observed”, the solubility ([2]; aqueous solutions) was “sparingly soluble” and the solubility ([2]; ethanol, ether, oils (e.g., olive oil or citrus oil) and supercritical carbon dioxide) was “soluble”. The “UCP1 mRNA levels increased” value (UCP1 mRNA; Naringenin 10 μM, 4-7 days, human subcutaneous adipocytes) was 4-8 fold, the “induction of brown adipocyte marker UCP1” value (UCP1 mRNA; human subcutaneous adipocyte cultures) was “significantly induces” and the “induction of brown adipocyte marker CPT-1” value [3] was “significantly induces”. For the same compound, the “increase in TRPM8 receptor expression” value (TRPM8 receptor) was 4 fold.

In the case of `CC12CCC(CC1)C(C)(C)O2` [Eucalyptol], the “UCP1 mRNA expression versus naringenin alone” value (UCP1 mRNA; eucalyptol at 100 μM and 200 μM in combination with Naringenin 5 μM, 7 d) is reported as “did not increase UCP1 mRNA expression above the level observed with naringenin alone”.

With `COc1ccc([C@@H]2CC(=O)c3c(O)cc(O)cc3O2)cc1O` [Hesperetin] the “UCP1 expression in comparison with flavonoid alone” value (from here on “UCP1 expression in comparison”) (UCP1 mRNA) was “No statistical difference”.

In the case of `O=C1NC(c2cccc([N+](=O)[O-])c2)=CCN1c1ccccc1O` [Icilin], the “synergy for UCP1 mRNA induction” value (UCP1 mRNA; 0.5 μM icilin combined with Naringenin 5 μM, 7 d) is listed as “did not display synergy”, the EC50 (TRPM8; TRPM8 activator) is listed as roughly 0.5 µM and the “potency relative to menthol” value (TRPM8) is listed as “at least 100 fold”.

For `CC1CCC(C(C)C)C(O)C1` (stereo not drawn) [Menthol], the Cmax ([1]; menthol, read-out: Cmax) is listed as 20 µM, the Cmax ([1]; menthol, read-out: high end of serum Cmax) is listed as 30 µM and the “induction of UCP1 or other beige markers” value (UCP1 mRNA; Menthol alone, human adipocyte cultures) is listed as “No induction”. The Ucp1 expression (Ucp1 expression [4]) was “concentration-dependent increase”, the “increase in UCP1 expression” value (UCP1 expression [5]; Menthol 100 μM overnight) was 1.5 fold and the “increase in UCP1 expression” value (UCP1 expression [5]; Menthol 100 μM, cells exposed to 26° C.) was 40 fold.

In the case of `COc1cc(CN(CCN)C(=O)OC(C)c2ccccc2)ccc1OCc1ccccc1` (stereo not drawn) [PBMC], the “Naringenin-stimulated UCP1 expression in presence of inhibitor” value (UCP1 mRNA; inhibitor during 5 μM Naringenin treatment for 3 days) is reported as “prevented Naringenin-stimulated UCP1 expression”.

In the case of `O=c1cc(-c2ccc(O)cc2)oc2cc(O)cc(O)c12` [apigenin], the “UCP1 expression in comparison” value (UCP1 mRNA) is reported as “No statistical difference”.

With `O=c1c(O)c(-c2ccc(O)c(O)c2)oc2cc(O)cc(O)c12` [quercetin] the “UCP1 expression in comparison” value (UCP1 mRNA) was “No statistical difference”.

Source: patent US20220226280A1, “COMPOSITIONS AND METHODS FOR INCREASED GLUCOSE UPTAKE AND FAT METABOLISM” (Board of Supervisors of Louisiana State University and …, priority 2017, published 2022)
